The results in this text go back to patent publication US20100249064A1, “METHODS AND COMPOSITIONS FOR TREATING DISEASES AND CONDITIONS INVOLVING HIGHER MOLECULAR WEIGHT HYALURONAN” (University of Chicago, priority 2007, published 2010).

“Also recorded” adds a separate entry of the source.

Assay [1] concerns the target T1, purified HABP2 (Homo sapiens, UniProt Q14520).
T1 construct: host or cells: human pulmonary endothelial cells (EC); secreted into the medium, immunoprecipitated with anti-HABP2 antibody
Put plainly: HABP2 protease assay (QuantiCleave, succinylated casein). The format is biochemical. The note with it: purified HABP2, various concentrations of HA. Here is the method: HABP2 protease assay. Protease activity is measured using the QuantiCleave™ Protease Assay Kit (Pierce). Briefly, the immunobeads are incubated with succinylated casein for one hour followed by development with TNBSA (2,4,6-trinitrobenzene sulfonic acid) and read at 450 nm.
HABP2 protein purification and protease activity determination. Media from HABP2 overexpression vector-transfected EC (Origene) was immunoprecipitated with anti-HABP2 antibody-conjugated Sepharose beads (Sigma). The immunobeads were then extensively washed in 50 mM Borate, pH=8.5 and eluted with 1M NaCl with 0.1% NP-40 and dialyzed against a 1,000 fold excess of 50 mM Borate, pH=8.5. Protein assays were performed to quantitate total protein. The purified protein was run on SDS-PAGE and either immunoblotted with anti-HABP2 antibody (Novus Biologicals) or stained with Imperial™ protein stain (Pierce) to check for purity. Protease activity was measured using the QuantiCleave™ Protease Assay Kit (Pierce). Briefly, the immunobeads were incubated with succinylated casein for one hour followed by development with TNBSA (2,4,6-trinitrobenzene sulfonic acid) and read at 450 nm.
Determination of the role of HMW-HA/HABP2/C1INH interactions in regulating angiogenesis in vitro. Human pulmonary EC (Cambrex), grown in EBM-2 complete medium (Cambrex) at 37° C. in a humidified atmosphere of 5% CO2, 95% air, with passages 6-10 used for experimentation will be treated with or without 100 nM HMW-HA and/or 100 nM VEGF in the presence or absence of HABP2 and/or C1INH overexpression vectors (Origene), exogenous purified recombinant HABP2 polyanion binding domain and/or C1INH (Novus Biologicals) and/or siRNA (scramble, HABP2 or C1INH). For HABP2 protease activity determination, media from HABP2 overexpressing EC (see above) was immunoprecipitated with anti-HABP2 antibody-conjugated Sepharose beads (Sigma). The immunobeads were then extensively washed in 50 mM Borate, pH=8.5 and protease activity was measured using the QuantiCleave™ Protease Assay Kit (Pierce). Briefly, the immunobeads were incubated with succinylated casein for one hour followed by development with TNBSA (2,4,6-trinitrobenzene sulfonic acid) and read at 450 nm.

In assay [2] the test system is HPMVEC. As to the kind of experiment: EC migration (transwell). It counts as cell-based, human. The note with it: 100 nM HA with or without 100 nM VEGF, or siRNA 48 hours then VEGF; 18 hours. The protocol: Determination of the role of HMW-HA/CD44 interactions in regulating hyaluronidase activity and angiogenesis in vitro. Human pulmonary microvascular EC (HPMVEC) (Cambrex), grown in EBM-2 complete medium (Cambrex) at 37° C. in a humidified atmosphere of 5% CO2, 95% air, with passages 6-10 used for experimentation was treated with or without 100 nM HMW-HA and/or 100 nM VEGF in the presence or absence of CD44 isoform-specific blocking antibodies (EMD Biosciences), siRNA (scramble, CD44, Hyal-1, Hyal-2, Hyal-3 or Hyal-4) and the potent hyaluronidase inhibitor, L-ascorbic acid 6-hexadecanoate (Botzki et al., 2004) (Sigma). […] Treated EC will either be analyzed for protein expression, hyaluronidase activity or VEGF-induced proliferation, migration or tube formation. […] Cells from the upper and lower chamber were quantitated using the CellTiter96™ MTS assay (Promega, San Luis Obispo, Calif.) and read at 492 nm. % migration was defined as the # of cells in the lower chamber […] the number of cells in both the upper and lower chamber. Each assay was set up in triplicate, repeated at least five times and analyzed statistically by Student's t test (with statistical significance set at P<0.05). […] The in vitro cell proliferation assay was analyzed by measuring increases in cell number using the CellTiter96™ MTS assay (Promega, San Luis Obispo, Calif.) and read at 492 nm. […]

T1 sequence (Q14520 24-560): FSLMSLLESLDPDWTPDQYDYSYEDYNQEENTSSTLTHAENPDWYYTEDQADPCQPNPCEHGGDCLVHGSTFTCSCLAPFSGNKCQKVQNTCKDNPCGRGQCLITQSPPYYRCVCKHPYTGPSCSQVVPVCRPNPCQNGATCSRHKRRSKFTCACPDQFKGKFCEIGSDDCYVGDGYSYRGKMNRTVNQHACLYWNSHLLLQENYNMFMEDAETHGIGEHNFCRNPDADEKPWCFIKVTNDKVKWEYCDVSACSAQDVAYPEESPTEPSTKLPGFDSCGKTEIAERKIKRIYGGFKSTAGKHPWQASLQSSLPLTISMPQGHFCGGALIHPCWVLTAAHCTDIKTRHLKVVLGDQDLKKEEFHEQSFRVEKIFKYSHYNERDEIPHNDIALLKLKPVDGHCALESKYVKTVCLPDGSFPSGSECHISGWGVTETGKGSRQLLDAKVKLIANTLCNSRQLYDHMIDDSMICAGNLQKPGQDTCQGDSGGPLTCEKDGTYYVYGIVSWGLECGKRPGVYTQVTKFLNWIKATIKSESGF

hyaluronan [LMW-HA, reference compound]: the results for the HABP2 protease activity entry in assay [1] and in assay [1] (listed as low MW hyaluronan) were “activates; also recorded: enhances” and “increased the protease activity of purified HABP2 in a dose-dependent manner”, respectively. In assay [2], the “EC migration (% Migration)” value is “promotes EC proliferation and migration”.
hyaluronan [HMW-HA]: the HABP2 protease activity result is “inhibits” in assay [1]; “directly binds and inhibits the enzymatic activity of HABP2” in assay [1] (listed as High molecular weight hyaluronan); “reduced its activity” in assay [1] (listed as high MW hyaluronan). In assay [2], the “EC migration (% Migration)” value was “inhibited VEGF-induced hyaluronidase expression, EC proliferation (A) and migration (B)”.
